Laboratory results from ChEMBL document CHEMBL6127012, “Discovery of DS-1093a: An oral hypoxia-inducible factor prolyl hydroxylase inhibitor for the treatment of renal anemia” (Bioorg Med Chem Lett, 2024).

Legend:
Rattus norvegicus = assay: Hematopoietic effect on adenine-induced renal anemia po dosed rat model assessed as increase in hemoglobin level administered for 4 days and measured on day 5,7,9,11 and 14; format: functional, organism-based; conditions: dose 0.3-3 mg/kg, time 4.0 day
Cynomolgus monkey = assay: Anti-leukemia activity in cynomolgus monkey assessed as dose required to cause 10 fold increase in plasma EPO level
[1] = AUC (0 to 24 hrs) in rat at 100 mg/kg, po measured on day 4; format: ADME, organism-based; conditions: in vivo, time 4 day
[2] = Lipophilicity, logD of the compound; format: physicochemical; conditions: octanol/water
[3] = Half life in rat at 3 mg/kg, po measured on day 4; format: ADME, organism-based; conditions: in vivo, time 4 day
[4] = Toxicity in rat assessed as increase in ALT level […] at 10 mg/kg, po measured on day 4 (reference value: 38 IU/L); format: organism-based; conditions: in vivo, 96 h, time 4 day
[5] = Cmax in rat at 3 mg/kg, po measured on day 4; format: ADME, organism-based; conditions: in vivo, time 4 day
cells = conditions: Homo sapiens, Hep3B
Description: Induction of EPO production in human Hep3B cells

[6] = AUC in rat at 3 mg/kg, po measured on day 4; format: ADME, organism-based; conditions: in vivo, time 4 day
[7] = Toxicity in rat assessed as NOAEL at 10 mg/kg, po measured for 14 days; format: organism-based; conditions: in vivo, 336 h, time 14 day
[8] = Toxicity in rat assessed as increase in AST level […] at 10 mg/kg, po measured on day 4 (reference value: 71 IU/L); format: organism-based; conditions: in vivo, 96 h, time 4 day
[9] = Toxicity in rat assessed as increase in ALT level […] at 100 mg/kg, po measured on day 4 (reference value: 38 IU/L); format: organism-based; conditions: in vivo, 96 h, time 4 day
[10] = AUC (0 to 24 hrs) in rat at 10 mg/kg, po measured for 14 days; format: ADME, organism-based; conditions: in vivo, time 14 day
[11] = AUC (0 to 24 hrs) in rat at 10 mg/kg, po measured on day 4; format: ADME, organism-based; conditions: in vivo, time 4 day
[12] = Metabolic stability in rat plasma assessed as parent compound remaining; format: ADME, cell-free
[13] = Toxicity in rat assessed as increase in AST level […] at 100 mg/kg, po measured on day 4 (reference value: 71 IU/L); format: organism-based; conditions: in vivo, 96 h, time 4 day
[14] = Plasma protein binding in rat assessed as free fraction; format: ADME, cell-free
[15] = AUC (0 to 24 hrs) in rat at 0.54 mg/kg, po measured for 14 days; format: ADME, organism-based; conditions: in vivo, time 14 day
[16] = Partition coefficient, Kp of compound in rat liver to plasma; format: ADME, cell-free; conditions: liver and plasma
Egl nine homolog 1 = Egl nine homolog 1 (Homo sapiens, UniProt Q9GZT9)
Egl nine homolog 1, sequence (Q9GZT9 whole entry): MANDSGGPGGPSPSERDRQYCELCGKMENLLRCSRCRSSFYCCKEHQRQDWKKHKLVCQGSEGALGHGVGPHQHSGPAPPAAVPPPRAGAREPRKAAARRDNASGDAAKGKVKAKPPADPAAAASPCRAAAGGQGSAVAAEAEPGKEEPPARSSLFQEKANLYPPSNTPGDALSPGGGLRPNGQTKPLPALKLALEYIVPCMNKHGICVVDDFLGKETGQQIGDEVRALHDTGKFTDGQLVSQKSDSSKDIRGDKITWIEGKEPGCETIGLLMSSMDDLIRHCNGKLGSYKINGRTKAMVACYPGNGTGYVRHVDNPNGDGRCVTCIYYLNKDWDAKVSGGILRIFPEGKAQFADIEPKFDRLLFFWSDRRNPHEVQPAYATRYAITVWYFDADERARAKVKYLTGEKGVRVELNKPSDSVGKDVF
Description: Inhibition of HIF-PHD2 (unknown origin)

| EC50 (cells) [µM] | SMILES | also measured |
| --- | --- | --- |
| 0.49 | Cc1nc(CC2CCN(c3ccc(-c4ccc(C[C@H](C)O)cc4)cc3)CC2)nc(C(=O)NCC(=O)O)c1O | Activity (Rattus norvegicus): Dose-Dependent Effect; EC10 (Cynomolgus monkey): 3.5 mg/kg; AUC at 96 h [1]: 162000 ng·h/mL; logD [2]: 1.2; half-life [3]: 1 h; Activity [4]: 40 IU/L; Cmax [5]: 860 ng/mL; AUC at 96 h [6]: 4320 ng·h/mL; Activity [7]: Non-Toxic; Activity [8]: 79 IU/L; Activity [9]: 52 IU/L; AUC at 336 h [10]: 88500 ng·h/mL; AUC at 96 h [11]: 16200 ng·h/mL; Stability [12]: 79%; Activity [13]: 97 IU/L; Fu [14]: 0.73%; AUC at 336 h [15]: 600 ng·h/mL |
| 0.84 | Cc1nc(CC2CCN(c3ccc(-c4ccc(C(=O)N(C)C)cc4)cc3)CC2)nc(C(=O)NCC(=O)O)c1O |  |
| 2.7 | Cc1nc(CC2CCN(c3ccc(Cc4ccc(CO)cc4)cc3)CC2)nc(C(=O)NCC(=O)O)c1O |  |
| 27 | Cc1nc(CC2CCN(c3ccc(C(C)(C)C)cc3)C2)nc(C(=O)NCC(=O)O)c1O (stereo not given) |  |
| 11 | Cc1nc(CCCCC2CCN(c3ccc(C(C)(C)C)cc3)CC2)nc(C(=O)NCC(=O)O)c1O |  |
| 3.1 | Cc1nc(Cc2cnc(-c3ccc(C(C)(C)C)cc3)s2)nc(C(=O)NCC(=O)O)c1O |  |
| 0.84 | Cc1nc(CC2CCN(c3ccc(-c4ccc(C(C)(C)CO)cc4)cc3)CC2)nc(C(=O)NCC(=O)O)c1O |  |
| 11 | Cc1nc(CCCC2CCN(c3ccc(C(C)(C)C)cc3)CC2)nc(C(=O)NCC(=O)O)c1O |  |
| 8.4 | Cc1nc(Cc2ccc(-c3ccccc3)cc2)nc(C(=O)NCC(=O)O)c1O | EC10 (Cynomolgus monkey): 2.2 mg/kg |
| 13 | Cc1nc(CCC2CCN(c3ccc(C(C)(C)C)cc3)CC2)nc(C(=O)NCC(=O)O)c1O |  |
|  | Cc1nc(Cc2ccc(-c3ccccc3)cc2)nc(C(=O)NCC(=O)O)c1C | IC50 (Egl nine homolog 1): > 100 µM |
| 3.2 | Cc1nc(CC2CCN(c3ccc(Cc4ccc(C(C)(C)CO)cc4)cc3)CC2)nc(C(=O)NCC(=O)O)c1O |  |
| 2.1 | Cc1nc(CC2CCN(c3ccc(Cc4ccc(CC(C)O)cc4)cc3)CC2)nc(C(=O)NCC(=O)O)c1O (stereo not given) |  |
| 0.55 | Cc1nc(CC2CCN(c3ccc(-c4ccc(CC(C)O)cc4)cc3)CC2)nc(C(=O)NCC(=O)O)c1O (racemic) | Kp [16]: 1.5 |
| 5.8 | Cc1nc(CC2CCN(c3ccc(Cc4ccc(C(=O)N(C)C)cc4)cc3)CC2)nc(C(=O)NCC(=O)O)c1O |  |
| 14 | Cc1nc(Cc2ccc(-c3ccccc3)cc2)nc(C(=O)N[C@@H](C)C(=O)O)c1O |  |
| 16 | CCc1nc(Cc2ccc(-c3ccccc3)cc2)nc(C(=O)NCC(=O)O)c1O |  |
| 0.47 | Cc1nc(CC2CCN(c3ccc(-c4ccc(CO)cc4)cc3)CC2)nc(C(=O)NCC(=O)O)c1O |  |
| 19 | Cc1nc(CC2CCCN(c3ccc(C(C)(C)C)cc3)CC2)nc(C(=O)NCC(=O)O)c1O (stereo not given) |  |
| 0.44 | Cc1nc(CC2CCN(c3ccc(-c4ccc(C[C@@H](C)O)cc4)cc3)CC2)nc(C(=O)NCC(=O)O)c1O | EC10 (Cynomolgus monkey): 2.4 mg/kg; AUC at 96 h [1]: 197000 ng·h/mL; Activity [4]: 40 IU/L; Activity [8]: 77 IU/L; Activity [9]: 54 IU/L; AUC at 96 h [11]: 15500 ng·h/mL; Activity [13]: 103 IU/L |

| SMILES | EC50 (cells) [µM] | also measured |
| --- | --- | --- |
| Cc1nc(CC2CCN(c3cccc(Cc4ccccc4)c3)CC2)nc(C(=O)NCC(=O)O)c1O | 3.9 |  |
| Cc1nc(CC2CCN(c3ccc(C(C)(C)C)cc3)CC2)nc(C(=O)NCC(=O)O)c1O | 1.5 |  |
| Cc1nc(CC2CCN(c3ccc(F)cc3)CC2)nc(C(=O)NCC(=O)O)c1O | 9.9 |  |
| CSc1nc(CC2CCN(c3ccc(C(C)(C)C)cc3)CC2)nc(C(=O)NCC(=O)O)c1O | 3 |  |
| Cc1nc(CC2CCN(c3cccc(C(C)(C)C)c3)CC2)nc(C(=O)NCC(=O)O)c1O | 6.3 |  |
| CC(C)(C)c1ccc(N2CCC(Cc3nc(C(=O)NCC(=O)O)c(O)c(C(F)F)n3)CC2)cc1 | 19 |  |
| Cc1nc(CC2CCN(c3ccc(Cc4ccccc4)cc3)CC2)nc(C(=O)NCC(=O)O)c1O | 0.99 | EC10 (Cynomolgus monkey): 0.5 mg/kg; Kp [16]: 9.6 |
| Cc1nc(CC2CCN(c3ccc(C(F)(F)F)cc3)CC2)nc(C(=O)NCC(=O)O)c1O | 5.5 |  |
| Cc1ccc(N2CCC(Cc3nc(C)c(O)c(C(=O)NCC(=O)O)n3)CC2)cc1 | 10 |  |
| CCCc1ccc(N2CCC(Cc3nc(C)c(O)c(C(=O)NCC(=O)O)n3)CC2)cc1 | 1.6 |  |
| Cc1nc(Cc2ccc(-c3ccc(C(C)(C)C)cc3)nc2)nc(C(=O)NCC(=O)O)c1O | 1 |  |
| Cc1nc(CC2CCN(c3ccc(-c4ccccc4)cc3)CC2)nc(C(=O)NCC(=O)O)c1O | 0.42 | EC10 (Cynomolgus monkey): 1.1 mg/kg |
| Cc1nc(Cc2ccc(-c3ccc(C(C)(C)C)cc3)cn2)nc(C(=O)NCC(=O)O)c1O | 1.9 |  |
| Cc1nc(Cc2cnc(-c3ccc(C(C)(C)C)cc3)nc2)nc(C(=O)NCC(=O)O)c1O | 1.9 |  |
| CCCCc1ccc(N2CCC(Cc3nc(C)c(O)c(C(=O)NCC(=O)O)n3)CC2)cc1 | 1.6 |  |
| Cc1nc(CC2CCN(c3ccc(Cl)cc3)CC2)nc(C(=O)NCC(=O)O)c1O | 6.9 |  |
